Earlier results as cited in US8212016B2, “NPC1L1 orthologues” (Schering Corporation, priority 2006, dated 2012).

Target: T1, human NPC1L1 (Homo sapiens, UniProt Q9UHC9, T1073A)
T1 construct: expressed in transfected cells
T1 sequence (Q9UHC9 22-1332 isoform Q9UHC9-2 T1046A): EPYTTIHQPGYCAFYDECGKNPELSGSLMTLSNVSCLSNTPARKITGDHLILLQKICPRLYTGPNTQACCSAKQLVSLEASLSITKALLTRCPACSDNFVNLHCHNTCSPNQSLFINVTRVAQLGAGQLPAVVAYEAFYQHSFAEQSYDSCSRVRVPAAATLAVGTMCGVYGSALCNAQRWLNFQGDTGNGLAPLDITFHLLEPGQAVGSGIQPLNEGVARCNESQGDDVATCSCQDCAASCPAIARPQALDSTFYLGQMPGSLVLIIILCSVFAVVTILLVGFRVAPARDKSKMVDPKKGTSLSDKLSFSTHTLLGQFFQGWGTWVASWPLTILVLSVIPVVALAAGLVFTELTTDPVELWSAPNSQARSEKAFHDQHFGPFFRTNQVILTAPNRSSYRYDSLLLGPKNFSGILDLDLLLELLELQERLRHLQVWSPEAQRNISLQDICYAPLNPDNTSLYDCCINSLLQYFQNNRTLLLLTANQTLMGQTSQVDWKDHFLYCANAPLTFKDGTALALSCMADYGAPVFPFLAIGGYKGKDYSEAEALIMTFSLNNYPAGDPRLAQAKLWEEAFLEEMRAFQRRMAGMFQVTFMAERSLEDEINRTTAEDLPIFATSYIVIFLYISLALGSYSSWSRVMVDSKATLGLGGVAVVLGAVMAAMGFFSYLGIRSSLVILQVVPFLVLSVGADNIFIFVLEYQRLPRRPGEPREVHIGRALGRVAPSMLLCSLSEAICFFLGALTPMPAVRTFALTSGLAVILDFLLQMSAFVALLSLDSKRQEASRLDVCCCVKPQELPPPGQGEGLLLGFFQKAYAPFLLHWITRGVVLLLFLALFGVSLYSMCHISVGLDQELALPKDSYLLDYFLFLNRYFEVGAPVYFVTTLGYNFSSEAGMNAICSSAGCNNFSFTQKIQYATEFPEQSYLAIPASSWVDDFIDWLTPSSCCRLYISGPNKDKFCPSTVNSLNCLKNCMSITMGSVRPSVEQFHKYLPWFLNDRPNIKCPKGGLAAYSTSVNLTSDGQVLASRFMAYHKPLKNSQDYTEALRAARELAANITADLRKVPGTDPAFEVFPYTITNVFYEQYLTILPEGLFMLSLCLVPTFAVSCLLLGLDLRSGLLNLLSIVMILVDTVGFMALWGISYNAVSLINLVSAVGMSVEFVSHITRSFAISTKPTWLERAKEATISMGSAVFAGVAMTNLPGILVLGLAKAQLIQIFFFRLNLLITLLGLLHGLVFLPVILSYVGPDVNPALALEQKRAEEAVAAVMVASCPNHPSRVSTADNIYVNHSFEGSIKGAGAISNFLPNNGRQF
Settings: human NPC1L1, Garcia-Calvo et al. 2005; read-out: Kd, previously reported; cited from earlier work

## O=C(O)[C@H]1O[C@@H](Oc2ccc([C@@H]3[C@@H](CC[C@H](O)c4ccc(F)cc4)C(=O)N3c3ccc(F)cc3)cc2)[C@H](O)[C@@H](O)[C@@H]1O [compound 4, glucuronidated ezetimibe]
  Kd: 220 nM
